{
  "source": "patent US20090175967A1",
  "about": "“METHODS FOR TREATMENT OF INTESTINAL CARCINOGENESIS WITH RICE BRAN” (priority 2008, published 2009)",
  "origin": "cited, not measured here",
  "test_system": "Apc^Min mice",
  "data": [
    {"molecule": "COc1cc(/C=C/C(=O)CC(=O)/C=C/c2ccc(O)c(OC)c2)ccc1O", "note": "[curcumin]", "values": [
      {"measurement": "adenoma development", "result": "compromised adenoma development"}
    ]}
  ]
}
